Assay results: ChEMBL document CHEMBL1777812, “New 1,4-di-N-oxide-quinoxaline-2-ylmethylene isonicotinic acid hydrazide derivatives as anti-Mycobacterium tuberculosis agents” (Bioorg Med Chem Lett, 2011)

What was measured:
[1] = Selectivity index, Ratio of CC50 for african green monkey Vero cells to IC90 for Mycobacterium tuberculosis H37Rv ATCC 27294; format: toxicity, cell-based
[2] = Cytotoxicity against african green monkey Vero cells after 72 hrs by Cell titer Glo luminescent cell viability assay; format: cell-based; details: chlorocebus sabaeus
[3] = system: Mycobacterium tuberculosis; experiment: Antimycobacterial activity against Mycobacterium tuberculosis H37Rv ATCC 27294 by microplate Alamar blue assay; format: functional, organism-based

Compound | selectivity ratio [1] | CC50 at 72 h [2] [µM] | IC50 [3] [µM] | IC90 [3] [µM]
Cc1c(/C=N/NC(=O)c2ccncc2)[n+]([O-])c2cc(F)ccc2[n+]1[O-] | 3.31 | 76.5 | < 0.58 | 23.1
Cc1c(C(=O)NCc2ccccc2)[n+]([O-])c2cc(Cl)ccc2[n+]1[O-] | > 231 | > 291 | 1.1 | 1.25
Cc1c(C(=O)NCc2ccccc2)[n+]([O-])c2cc(F)ccc2[n+]1[O-] | > 65.7 | > 306 | 2.83 | 4.65
Cc1c(C(=O)NCc2ccccc2)[n+]([O-])c2ccccc2[n+]1[O-] | > 38.4 | > 323 | 4.91 | 8.42
Cc1ccc2c(c1)[n+]([O-])c(C(=O)NCc1ccccc1)c(C)[n+]2[O-] | > 23.8 | > 309 | 8.35 | 13
Cc1c(/C=N/NC(=O)c2ccncc2)[n+]([O-])c2cc(C(F)(F)F)ccc2[n+]1[O-] | 20 | 70 | 1.5 | 3.5
COc1ccc2c(c1)[n+]([O-])c(/C=N/NC(=O)c1ccncc1)c(C)[n+]2[O-] | – | – | < 0.59 | 50.6
COc1ccc2c(c1)[n+]([O-])c(C(=O)NCc1ccccc1)c(C)[n+]2[O-] | – | – | 18.9 | 36.4
Cc1c(C(=O)NCc2ccccc2)[n+]([O-])c2cc(C(F)(F)F)ccc2[n+]1[O-] | > 246 | > 265 | < 0.81 | 1.07
Cc1c(/C=N/NC(=O)c2ccncc2)[n+]([O-])c2cc(Cl)ccc2[n+]1[O-] | 48.1 | 55.8 | 1.04 | 1.16
Cc1cc2c(cc1C)[n+]([O-])c(/C=N/NC(=O)c1ccncc1)c(C)[n+]2[O-] | > 43.5 | > 124 | 1.22 | 2.57
Cc1c(/C=N/NC(=O)c2ccncc2)[n+]([O-])c2ccccc2[n+]1[O-] | > 93 | > 124 | 1.17 | 1.32
Cc1ccc2c(c1)[n+]([O-])c(/C=N/NC(=O)c1ccncc1)c(C)[n+]2[O-] | 2.86 | 52.1 | 1.33 | 18.2
Cc1cc2c(cc1C)[n+]([O-])c(C(=O)NCc1ccccc1)c(C)[n+]2[O-] | – | – | 90.8 | 296
NNC(=O)c1ccncc1 [ISONIAZID] | > 20000 | > 500 | – | 0.21
